Patent US9296741B2, “Bromodomain inhibitors” (priority 2012, dated 2016)
pEC50, pKi: −log10 of the molar value.

Assays:
[1] = Human liver microsome stability assay; type: in vitro ADME; conditions: both sexes, human, microsomes, pH 7.4
[2] = biological target: human BRD4 second bromodomain (BDII_E352-M457) (Homo sapiens (Human), UniProt O60885); experiment: TR-FRET bromodomain binding assay, BRD4 second bromodomain
[3] = tested on: OPM-2 human multiple myeloma xenograft tumors; experiment: animal or person; conditions: Mus musculus, OPM-2, po, PO, QDx21, vehicle A; for change in vivo at 1 mg/kg / inhibition in vivo at 1 mg/kg: 1 mg/kg/day; for change in vivo at 3 mg/kg / inhibition in vivo at 3 mg/kg: 3 mg/kg/day
[4] = biological target: human BRD4 first bromodomain (BDI_K57-E168) (Homo sapiens (Human), UniProt O60885); experiment: TR-FRET bromodomain binding assay, BRD4 first bromodomain
[5] = Rat liver microsome stability assay; type: in vitro ADME; conditions: rat liver microsomes (male Sprague-Dawley), 0.5 μM test compound, 0.25 mg/mL microsomal protein, pH 7.4, 37° C.; read-out: Stability in rat liver microsomes (t1/2 in minutes)
[6] = tested on: LPS induced IL-6 production; experiment: LPS (lipopolysaccharide) induced IL-6 production mouse assay; type: in vivo; conditions: Mus musculus, read-out: Inhibition of LPS induced IL-6 production in Mice, % inhibition at 3 mg/kg; 3 mg/kg oral, 1 h before LPS; serum IL-6 2 h after LPS
[7] = tested on: breast cancer cell line MX-1; experiment: MX-1 cell line proliferation assay; type: cell-based, human; conditions: Homo sapiens, MX1, 72 h; MX-1 cells, 3-day proliferation, Cell Titer Glo; read-out: Cellular proliferation: EC50
[8] = Mouse liver microsome stability assay; type: in vitro ADME; conditions: male, CD1, mouse, microsomes, pH 7.4
[9] = read-out: % TGD (tumor growth delay), OPM-2
[10] = read-out: % TGI (tumor growth inhibition), OPM-2

Cn1cc(-c2cc(S(N)(=O)=O)ccc2Oc2ccc(F)cc2F)c2cc[nH]c2c1=O [Example 146, 4-(2,4-difluorophenoxy)-3-(6-methyl-7-oxo-6,7-dihydro-1H-pyrrolo[2,3-c]pyridin-4-yl)benzenesulfonamide]
half-life at 0.5 μM [1]: > 2 h
pKi [2]: 8.72
change in vivo at 1 mg/kg [3, 9]: 35%
change in vivo at 3 mg/kg [3, 9]: 78%
inhibition in vivo at 1 mg/kg [3, 10]: 39%
inhibition in vivo at 3 mg/kg [3, 10]: 76%
pKi [4]: 8.12
half-life at 0.5 μM [5]: 0.867 h
inhibition in vivo at 3 mg/kg [6]: 80%
pEC50 [7]: 7.22
half-life at 0.5 μM [8]: 0.917 h

Cn1cc(-c2cc(CS(C)(=O)=O)cnc2Oc2ccc(F)cc2F)c2cc[nH]c2c1=O [Example 311, 4-{2-(2,4-difluorophenoxy)-5-[(methylsulfonyl)methyl]pyridin-3-yl}-6-methyl-1,6-dihydro-7H-pyrrolo[2,3-c]pyridin-7-one]
half-life at 0.5 μM [1]: > 2 h
pKi [2]: 8.35
change in vivo at 1.25 mg/kg ([3]; read-out: % TGD (tumor growth delay), OPM-2, 1.25 mg/kg/day): 90%
inhibition in vivo at 1.25 mg/kg ([3]; read-out: % TGI (tumor growth inhibition), OPM-2, 1.25 mg/kg/day): 60%
pKi [4]: 7.83
half-life at 0.5 μM [5]: 1.38 h
inhibition in vivo at 3 mg/kg [6]: 74%
pEC50 [7]: 7.65
half-life at 0.5 μM [8]: > 2 h

CCS(=O)(=O)c1ccc(NCC2CC2)c(-c2cn(C)c(=O)c3[nH]ccc23)c1 [Example 200, 4-{2-[(cyclopropylmethyl)amino]-5-(ethylsulfonyl)phenyl}-6-methyl-1,6-dihydro-7H-pyrrolo[2,3-c]pyridin-7-one]
half-life at 0.5 μM [1]: > 2 h
pKi [2]: 8.96
change in vivo at 1 mg/kg [3, 9]: 44%
change in vivo at 3 mg/kg [3, 9]: 82%
inhibition in vivo at 1 mg/kg [3, 10]: 50%
inhibition in vivo at 3 mg/kg [3, 10]: 80%
pKi [4]: 9.07
half-life at 0.5 μM [5]: 0.517 h
inhibition in vivo at 3 mg/kg [6]: 75%
pEC50 [7]: 7.95
half-life at 0.5 μM [8]: > 2 h

Cn1cc(-c2cc(S(C)(=O)=O)ccc2OCC2CC2)c2cc[nH]c2c1=O [Example 158, 4-[2-(cyclopropylmethoxy)-5-(methylsulfonyl)phenyl]-6-methyl-1,6-dihydro-7H-pyrrolo[2,3-c]pyridin-7-one]
half-life at 0.5 μM [1]: > 2 h
pKi [2]: 8.01
change in vivo at 6 mg/kg ([3]; read-out: % TGD (tumor growth delay), OPM-2, 6 mg/kg/day): 34%
change in vivo at 20 mg/kg ([3]; read-out: % TGD (tumor growth delay), OPM-2, 20 mg/kg/day): 72%
inhibition in vivo at 6 mg/kg ([3]; read-out: % TGI (tumor growth inhibition), OPM-2, 6 mg/kg/day): 53%
inhibition in vivo at 20 mg/kg ([3]; read-out: % TGI (tumor growth inhibition), OPM-2, 20 mg/kg/day): 78%
pKi [4]: 8.39
half-life at 0.5 μM [5]: > 2 h
pEC50 [7]: 7.61
half-life at 0.5 μM [8]: > 2 h

CCS(=O)(=O)c1ccc(OC2CCC(F)(F)CC2)c(-c2cn(C)c(=O)c3[nH]ccc23)c1 [Example 169, 4-{2-[(4,4-difluorocyclohexyl)oxy]-5-(ethylsulfonyl)phenyl}-6-methyl-1,6-dihydro-7H-pyrrolo[2,3-c]pyridin-7-one]
half-life at 0.5 μM [1]: 1.43 h
pKi [2]: 9.07
change in vivo at 3 mg/kg [3, 9]: 77%
inhibition in vivo at 3 mg/kg [3, 10]: 69%
pKi [4]: 9.06
half-life at 0.5 μM [5]: 0.567 h
inhibition in vivo at 3 mg/kg [6]: 67%
pEC50 [7]: 8.28
half-life at 0.5 μM [8]: 0.633 h
